Experimental data as given in PubChem BioAssay (NCI).
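The compound was tested at five concentrations on cells cultured in 96-well plates, with a 48-hour exposure period. TGI is the concentration that stops growth completely.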

Legend:
Assay in all cases: DTP human tumour cell line panel, 48 h
786-0 renal = tested on: 786-0 renal
A498 renal = tested on: A498 renal
A549 NSCLC = tested on: A549 NSCLC
ACHN renal = tested on: ACHN renal
BT-549 breast = tested on: BT-549 breast
CAKI-1 renal = tested on: CAKI-1 renal
CCRF-CEM leukemia = tested on: CCRF-CEM leukemia
COLO 205 colon = tested on: COLO 205 colon
DU-145 prostate = tested on: DU-145 prostate
EKVX NSCLC = tested on: EKVX NSCLC
HCC-2998 colon = tested on: HCC-2998 colon
HCT-116 colon = tested on: HCT-116 colon
HCT-15 colon = tested on: HCT-15 colon
HL-60(TB) leukemia = tested on: HL-60(TB) leukemia
HOP-62 NSCLC = tested on: HOP-62 NSCLC
HOP-92 NSCLC = tested on: HOP-92 NSCLC
HS 578T breast = tested on: HS 578T breast
HT29 colon = tested on: HT29 colon
K-562 leukemia = tested on: K-562 leukemia
LOX IMVI melanoma = tested on: LOX IMVI melanoma
M14 melanoma = tested on: M14 melanoma
MALME-3M melanoma = tested on: MALME-3M melanoma
MCF7 breast = tested on: MCF7 breast
MDA-MB-231 breast = tested on: MDA-MB-231 breast
MDA-MB-435 = tested on: MDA-MB-435
MDA-N = tested on: MDA-N
MOLT-4 leukemia = tested on: MOLT-4 leukemia
NCI-H226 lung = tested on: NCI-H226 lung
NCI-H23 lung = tested on: NCI-H23 lung
NCI-H460 lung = tested on: NCI-H460 lung
NCI-H522 lung = tested on: NCI-H522 lung
NCI/ADR-RES ovarian = tested on: NCI/ADR-RES ovarian
OVCAR-3 ovarian = tested on: OVCAR-3 ovarian
OVCAR-4 ovarian = tested on: OVCAR-4 ovarian
OVCAR-5 ovarian = tested on: OVCAR-5 ovarian
OVCAR-8 ovarian = tested on: OVCAR-8 ovarian
PC-3 prostate = tested on: PC-3 prostate
RPMI-8226 leukemia = tested on: RPMI-8226 leukemia
RXF 393 renal = tested on: RXF 393 renal
SF-268 CNS = tested on: SF-268 CNS
SF-295 CNS = tested on: SF-295 CNS
SF-539 CNS = tested on: SF-539 CNS
SK-MEL-2 melanoma = tested on: SK-MEL-2 melanoma
SK-MEL-28 melanoma = tested on: SK-MEL-28 melanoma
SK-MEL-5 melanoma = tested on: SK-MEL-5 melanoma
SK-OV-3 ovarian = tested on: SK-OV-3 ovarian
SN12C renal = tested on: SN12C renal
SNB-19 CNS = tested on: SNB-19 CNS
SNB-75 CNS = tested on: SNB-75 CNS
SR leukemia = tested on: SR leukemia
SW-620 colon = tested on: SW-620 colon
T-47D breast = tested on: T-47D breast
TK-10 renal = tested on: TK-10 renal
U251 CNS = tested on: U251 CNS
UACC-257 melanoma = tested on: UACC-257 melanoma
UACC-62 melanoma = tested on: UACC-62 melanoma
UO-31 renal = tested on: UO-31 renal
IGROV1 ovarian = tested on: IGROV1 ovarian
KM12 colon = tested on: KM12 colon

Structure (SMILES): Cc1cc(C)c(/C=C2\C(=O)Nc3ccccc32)[nH]1
- TGI (786-0 renal): > 100 µM
- TGI (A498 renal): > 100 µM
- TGI (A549 NSCLC): > 100 µM
- TGI (ACHN renal): > 100 µM
- TGI (BT-549 breast): > 100 µM
- TGI (CAKI-1 renal): > 100 µM
- TGI (CCRF-CEM leukemia): > 100 µM
- TGI (COLO 205 colon): > 100 µM
- TGI (DU-145 prostate): > 100 µM
- TGI (EKVX NSCLC): > 100 µM
- TGI (HCC-2998 colon): > 100 µM
- TGI (HCT-116 colon): > 100 µM
- TGI (HCT-15 colon): > 100 µM
- TGI (HL-60(TB) leukemia): > 34.1 µM
- TGI (HOP-62 NSCLC): > 100 µM
- TGI (HOP-92 NSCLC): > 100 µM
- TGI (HS 578T breast): > 100 µM
- TGI (HT29 colon): > 100 µM
- TGI (K-562 leukemia): > 100 µM
- TGI (LOX IMVI melanoma): > 100 µM
- TGI (M14 melanoma): > 100 µM
- TGI (MALME-3M melanoma): > 100 µM
- TGI (MCF7 breast): > 100 µM
- TGI (MDA-MB-231 breast): > 100 µM
- TGI (MDA-MB-435): > 100 µM
- TGI (MDA-N): > 100 µM
- TGI (MOLT-4 leukemia): > 100 µM
- TGI (NCI-H226 lung): > 100 µM
- TGI (NCI-H23 lung): > 100 µM
- TGI (NCI-H460 lung): > 100 µM
- TGI (NCI-H522 lung): > 100 µM
- TGI (NCI/ADR-RES ovarian): > 100 µM
- TGI (OVCAR-3 ovarian): > 100 µM
- TGI (OVCAR-4 ovarian): > 100 µM
- TGI (OVCAR-5 ovarian): > 100 µM
- TGI (OVCAR-8 ovarian): > 100 µM
- TGI (PC-3 prostate): > 100 µM
- TGI (RPMI-8226 leukemia): > 100 µM
- TGI (RXF 393 renal): > 100 µM
- TGI (SF-268 CNS): > 100 µM
- TGI (SF-295 CNS): > 100 µM
- TGI (SF-539 CNS): > 100 µM
- TGI (SK-MEL-2 melanoma): > 100 µM
- TGI (SK-MEL-28 melanoma): > 100 µM
- TGI (SK-MEL-5 melanoma): > 100 µM
- TGI (SK-OV-3 ovarian): > 100 µM
- TGI (SN12C renal): > 100 µM
- TGI (SNB-19 CNS): > 100 µM
- TGI (SNB-75 CNS): > 100 µM
- TGI (SR leukemia): > 100 µM
- TGI (SW-620 colon): > 100 µM
- TGI (T-47D breast): > 100 µM
- TGI (TK-10 renal): > 100 µM
- TGI (U251 CNS): > 100 µM
- TGI (UACC-257 melanoma): > 100 µM
- TGI (UACC-62 melanoma): > 100 µM
- TGI (UO-31 renal): > 100 µM

Structure (SMILES): C[N+]1(C(CO)Cc2c[nH]c3ccccc23)Cc2ccccc2C1 (stereo not given)
- TGI (786-0 renal): > 100 µM
- TGI (A498 renal): > 100 µM
- TGI (A549 NSCLC): > 100 µM
- TGI (ACHN renal): > 100 µM
- TGI (BT-549 breast): > 100 µM
- TGI (CAKI-1 renal): > 100 µM
- TGI (CCRF-CEM leukemia): > 100 µM
- TGI (COLO 205 colon): > 100 µM
- TGI (DU-145 prostate): > 100 µM
- TGI (EKVX NSCLC): > 100 µM
- TGI (HCC-2998 colon): > 100 µM
- TGI (HCT-116 colon): > 100 µM
- TGI (HCT-15 colon): > 100 µM
- TGI (HL-60(TB) leukemia): > 100 µM
- TGI (HOP-62 NSCLC): > 100 µM
- TGI (HOP-92 NSCLC): > 100 µM
- TGI (HS 578T breast): > 100 µM
- TGI (HT29 colon): > 100 µM
- TGI (IGROV1 ovarian): > 100 µM
- TGI (K-562 leukemia): > 100 µM
- TGI (KM12 colon): > 100 µM
- TGI (LOX IMVI melanoma): > 100 µM
- TGI (M14 melanoma): > 100 µM
- TGI (MALME-3M melanoma): 81 µM
- TGI (MCF7 breast): > 100 µM
- TGI (MDA-MB-231 breast): > 100 µM
- TGI (MDA-MB-435): > 100 µM
- TGI (MDA-N): > 100 µM
- TGI (MOLT-4 leukemia): > 100 µM
- TGI (NCI-H226 lung): > 100 µM
- TGI (NCI-H23 lung): > 100 µM
- TGI (NCI-H460 lung): > 100 µM
- TGI (NCI-H522 lung): > 100 µM
- TGI (NCI/ADR-RES ovarian): > 100 µM
- TGI (OVCAR-3 ovarian): > 100 µM
- TGI (OVCAR-4 ovarian): > 100 µM
- TGI (OVCAR-5 ovarian): > 100 µM
- TGI (OVCAR-8 ovarian): > 100 µM
- TGI (PC-3 prostate): > 100 µM
- TGI (RPMI-8226 leukemia): > 100 µM
- TGI (RXF 393 renal): > 100 µM
- TGI (SF-268 CNS): > 100 µM
- TGI (SF-295 CNS): > 100 µM
- TGI (SK-MEL-2 melanoma): > 100 µM
- TGI (SK-MEL-28 melanoma): > 100 µM
- TGI (SK-MEL-5 melanoma): > 100 µM
- TGI (SK-OV-3 ovarian): > 100 µM
- TGI (SN12C renal): > 100 µM
- TGI (SNB-19 CNS): > 100 µM
- TGI (SNB-75 CNS): > 100 µM
- TGI (SR leukemia): > 100 µM
- TGI (SW-620 colon): > 100 µM
- TGI (T-47D breast): > 100 µM
- TGI (TK-10 renal): > 100 µM
- TGI (U251 CNS): > 100 µM
- TGI (UACC-257 melanoma): > 100 µM
- TGI (UACC-62 melanoma): > 100 µM
- TGI (UO-31 renal): > 100 µM
